Measured values as given in patent publication US20230339970A1, “CASEIN KINASE 1 DELTA MODULATORS” (priority 2020, published 2023).

Tests used:
[1] = target: T1, human recombinant GST cleaved CSNK1D (Homo sapiens, UniProt P48730); test: Purified Enzyme Assay (ADP-Glo CSNK1D Kinase Assay); type: biochemical; details: 2 nM CSNK1D; peptide substrate 150 μM; ATP 20 μM; 45 minutes at room temperature
T1 construct: GST (cleaved yes); purchased University of Dundee clone DU 19064
Experimental: In this assay, CSNK1D phosphorylates a substrate peptide PLSRTL-pS-VASLPGL in the presence of ATP. […] This assay monitors CSNK1D kinase activity by measuring the amount of ADP produced in the assay.
The substrate mix is added to each well of a low volume, 384-well, white opaque plate. Test compounds were diluted in HBSS and added in a dose-response to the plate.
The total volume of each reaction is 5 ul (2 μL of substrate mix, 1 μL of diluted compounds, and 2 μL of human recombinant CSNK1D). The plates are incubated for 45 minutes at room temperature.
ADP was quantified using the ADP-Glo™ Kinase Assay. ADP-Glo Reagent (5 μL) was added to each well. After a 1 hour incubation at room temperature, Kinase Detection Reagent (10 μL) was added to each well and incubated for 30 minutes. […] The raw data from the Envision is used to calculate percent activity.

human CSNK1D = target: T2, human CSNK1D (Homo sapiens, UniProt P48730); test: Whole Cell nBRET CSNK1D Binding Assay; details: living CHO cells stably expressing human CSNK1D tagged with nanoluciferase; NanoBret tracer 130 nM; 2 hours at 37 C
T2 construct: expressed in transfected cells
T2 sequence (P48730 whole entry): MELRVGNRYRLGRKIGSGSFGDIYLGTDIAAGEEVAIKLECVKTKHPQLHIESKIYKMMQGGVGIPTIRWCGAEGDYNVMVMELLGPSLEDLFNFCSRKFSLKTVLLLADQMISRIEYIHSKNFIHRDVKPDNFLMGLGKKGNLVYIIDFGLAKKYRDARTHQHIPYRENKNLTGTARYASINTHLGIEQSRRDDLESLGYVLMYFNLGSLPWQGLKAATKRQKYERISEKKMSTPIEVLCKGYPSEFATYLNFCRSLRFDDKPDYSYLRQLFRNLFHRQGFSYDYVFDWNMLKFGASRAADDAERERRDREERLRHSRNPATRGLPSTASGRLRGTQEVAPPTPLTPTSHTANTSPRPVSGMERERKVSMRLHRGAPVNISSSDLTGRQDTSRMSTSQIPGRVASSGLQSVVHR

T1 sequence (P48730 whole entry): as above

Compound	IC50 [1] [nM]	IC50 (human CSNK1D) [nM]
Fc1ccc(-c2nn3c(c2-c2ccnc4[nH]ncc24)CCC(F)(COC(F)F)C3)nc1 (single isomer, unassigned) [Example 315, (*R)-4-(6-((Difluoromethoxy)methyl)-6-fluoro-2-(5-fluoropyridin-2-yl)-4,5,6,7-tetrahydropyrazolo[1,5-a]pyridin-3-yl)-1H-pyrazolo[3,4-b]pyridine]	73	1880
COCC1(F)CCc2c(-c3c(F)cnc4[nH]ncc34)c(-c3ccc(F)cn3)nn2C1 (single isomer, unassigned) [Example 303, (*R)-5-Fluoro-4-[6-fluoro-2-(5-fluoro-2-pyridyl)-6-(methoxymethyl)-5,7-dihydro-4H-pyrazolo[1,5-a]pyridin-3-yl]-1H-pyrazolo[3,4-b]pyridine]	9	180
CC1(C)Cn2nc(-c3cscn3)c(-c3ccnc4[nH]ncc34)c2CO1 [Example 124, 6,6-Dimethyl-3-(1H-pyrazolo[3,4-b]pyridin-4-yl)-2-(thiazol-4-yl)-6,7-dihydro-4H-pyrazolo[5,1-c][1,4]oxazine]	17	343
C[C@]1(C(F)(F)F)Cn2nc(-c3ccc(F)cn3)c(-c3ccnc4[nH]ncc34)c2CO1 (single isomer, unassigned) [Example 178, (*R)-2-(5-Fluoropyridin-2-yl)-6-methyl-3-(1H-pyrazolo[3,4-b]pyridin-4-yl)-6-(trifluoromethyl)-6,7-dihydro-4H-pyrazolo[5,1-c][1,4]oxazine]	77	1000
FCC1Cn2nc(-c3ccc(F)cc3)c(-c3ccnc4[nH]ncc34)c2CO1 (single isomer, unassigned) [Example 105, (*R)-(Fluoromethyl)-2-(4-fluorophenyl)-3-(1H-pyrazolo[3,4-b]pyridin-4-yl)-6,7-dihydro-4H-pyrazolo[5,1-c][1,4]oxazine]	4	46
CC1(C)CCn2nc(-c3ccc(F)cn3)c(-c3ccnc4[nH]ncc34)c2C1 [Example 50, 4-(2-(5-Fluoropyridin-2-yl)-5,5-dimethyl-4,5,6,7-tetrahydropyrazolo[1,5-a]pyridin-3-yl)-1H-pyrazolo[3,4-b]pyridine]	2	28
Fc1ccc(-c2nn3c(c2-c2c(F)cnc4[nH]ncc24)CC2(C3)CC2(F)F)nc1 (single isomer, unassigned) [Example 259, (*R)-1′.1′-Difluoro-3-(5-fluoro-1H-pyrazolo[3,4-b]pyridin-4-yl)-2-(5-fluoro-2-pyridyl)spiro[4,6-dihydropyrrolo[1,2-b]pyrazole-5,2′-cyclopropane]]	79	1920
Cc1cc(-c2c(-c3ccc(F)cc3)nn3c2OCCC3)c2cn[nH]c2n1 [Example 185, 2-(4-Fluorophenyl)-3-(6-methyl-1H-pyrazolo[3,4-b]pyridin-4-yl)-6,7-dihydro-5H-pyrazolo[5,1-b][1,3]oxazine]	1	17
CC1(C)Cc2c(-c3c(F)cnc4[nH]ncc34)c(-c3ccc(F)cn3)nn2C1 [Example 236, 5-Fluoro-4-[2-(5-fluoro-2-pyridyl)-5,5-dimethyl-4,6-dihydropyrrolo[1,2-b]pyrazol-3-yl]-1H-pyrazolo[3,4-b]pyridine]	3	21
Cc1nc2[nH]ncc2c(-c2c(-c3ccc(F)cn3)nn3c2COC(C)(C)C3)c1F [Example 157, 3-(5-Fluoro-6-methyl-1H-pyrazolo[3,4-b]pyridin-4-yl)-2-(5-fluoro-2-pyridyl)-6,6-dimethyl-4,7-dihydropyrazolo[5,1-c][1,4]oxazine]	8	72
Fc1ccc(-c2nn3c(c2-c2ccnc4[nH]ncc24)OCC2(C3)CC2(F)F)cc1 (single isomer, unassigned) [Example 477, (*R)-2,2-Difluoro-2′-(4-fluorophenyl)-3′-1H-pyrazolo[3,4-b]pyridin-4-yl)-5′H,7′H-spiro[cyclopropane-1,6′-pyrazolo[5,1-b][1,3]oxazine]]	6	33
COCC1CCc2c(-c3cc(C)nc4[nH]ncc34)c(-c3ccc(F)cn3)nn2C1 (single isomer, unassigned) [Example 297, (*R)-4-[2-(5-Fluoro-2-pyridyl)-6-(methoxymethyl)-4,5,6,7-tetrahydropyrazolo[1,5-a]pyridin-3-yl]-6-methyl-1H-pyrazolo[3,4-b]pyridine]	12	297

The remaining compounds from weak to strong by IC50 [1], led by results:

IC50 [1] [nM]	IC50 (human CSNK1D) [nM]	Compound
370	8060	COC1(C)COCc2c(-c3ccnc4[nH]ncc34)c(-c3ccc(F)cn3)nn2C1 (single isomer, unassigned) [Example 485, (*S)-2-(5-Fluoropyridin-2-yl)-7-methoxy-7-methyl-3-(1H-pyrazolo[3,4-b]pyridin-4-yl)-7,8-dihydro-4H,6H-pyrazolo[5,1-c][1,4]oxazepine]
258	5380	CC1(C)Cn2nc(-c3ccc(F)cn3)c(-c3cc(CCC(F)(F)F)nc4[nH]ncc34)c2CO1 [Example 391, 2-(5-Fluoro-2-pyridyl)-6,6-dimethyl-3-[6-(3,3,3-trifluoropropyl)-1H-pyrazolo[3,4-b]pyridin-4-yl]-4,7-dihydropyrazolo[5,1-c][1,4]oxazine]
14	249	Cc1cc(-c2c(-c3ccc(F)cn3)nn3c2O[C@@H](C)C[C@H]3C)c2cn[nH]c2n1 (single isomer, unassigned) [Example 206, (5*S,7*R)-2-(S-Fluoro-2-pyridyl)-5,7-dimethyl-3-(6-methyl-1H-pyrazolo[3,4-b]pyridin-4-yl)-6,7-dihydro-5H-pyrazolo[5,1-b][1,3]oxazine]
3	48	Fc1ccc(-c2nn3c(c2-c2ccnc4[nH]ncc24)C2CC2C3)nc1 (racemic) [Example 23, 2-(5-Fluoropyridin-2-yl)-3-(1H-pyrazolo[3,4-b]pyridin-4-yl)-3b,4,4a,5-tetrahydrocyclopropa[3,4]pyrrolo[1,2-b]pyrazole]
3	11	CC(C)C(=O)Nc1cc(-c2c(-c3ccc(F)cn3)nn3c2COC(C)(C)C3)ccn1 [Example 132, N-(4-(2-(5-Fluoropyridin-2-yl)-6,6-dimethyl-6,7-dihydro-4H-pyrazolo[5,1-c][1,4]oxazin-3-yl)pyridin-2-yl)isobutyramide]
2	3	Cc1cc(-c2c(-c3ccc(F)cc3)nn3c2C[C@@]2(C3)CC2(F)F)c2cn[nH]c2n1 (single isomer, unassigned) [Example 252, (*S)-1′,1′-Difluoro-2-(4-fluorophenyl)-3-(6-methyl-1H-pyrazolo[3,4-b]pyridin-4-yl)spiro[4,6-dihydropyrrolo[1,2-b]pyrazole-5,2′-cyclopropane]]
2	40	CC1COc2c(-c3ccnc4[nH]ncc34)c(-c3ccc(F)cn3)nn2C1 (stereo not shown) [Example 196, 2-(5-Fluoropyridin-2-yl)-6-methyl-3-(1H-pyrazolo[3,4-b]pyridin-4-yl)-6,7-dihydro-5H-pyrazolo[5,1-b][1,3]oxazine]
1	1	CCC(=O)Nc1cc(-c2c(-c3ccc(F)cc3)nn3c2OCC2(CC2)C3)ccn1 [Example 455, N-(4-(2′-(4-Fluorophenyl)-5′H,7′H-spiro[cyclopropane-1,6′-pyrazolo[5,1-b][1,3]oxazin]-3′-yl)pyridin-2-yl)propionamide]
